Assay results taken from US20250134869A1, “Pyrrolo[2,3-d]pyrimidinyl, Pyrrolo[2,3-b]pyrazinyl and Pyrrolo[2,3-d]pyridinyl Acryla-mides” (Pfizer Inc, priority 2021, published 2025).
Where two headings read alike, the source gives them in different places.

Biological target: JAK3 enzyme (Homo sapiens (Human), UniProt P52333)
Test: JAK Caliper Enzyme Assay at 4 μM or 1 mM ATP
Type: biochemical
[1] = read-out: JAK3 (4 μM ATP) IC50, 4 μM ATP
[2] = read-out: JAK3 (1 mM ATP) IC50, 1 mM ATP

Sequence of JAK3 enzyme (P52333 whole entry, species assumed): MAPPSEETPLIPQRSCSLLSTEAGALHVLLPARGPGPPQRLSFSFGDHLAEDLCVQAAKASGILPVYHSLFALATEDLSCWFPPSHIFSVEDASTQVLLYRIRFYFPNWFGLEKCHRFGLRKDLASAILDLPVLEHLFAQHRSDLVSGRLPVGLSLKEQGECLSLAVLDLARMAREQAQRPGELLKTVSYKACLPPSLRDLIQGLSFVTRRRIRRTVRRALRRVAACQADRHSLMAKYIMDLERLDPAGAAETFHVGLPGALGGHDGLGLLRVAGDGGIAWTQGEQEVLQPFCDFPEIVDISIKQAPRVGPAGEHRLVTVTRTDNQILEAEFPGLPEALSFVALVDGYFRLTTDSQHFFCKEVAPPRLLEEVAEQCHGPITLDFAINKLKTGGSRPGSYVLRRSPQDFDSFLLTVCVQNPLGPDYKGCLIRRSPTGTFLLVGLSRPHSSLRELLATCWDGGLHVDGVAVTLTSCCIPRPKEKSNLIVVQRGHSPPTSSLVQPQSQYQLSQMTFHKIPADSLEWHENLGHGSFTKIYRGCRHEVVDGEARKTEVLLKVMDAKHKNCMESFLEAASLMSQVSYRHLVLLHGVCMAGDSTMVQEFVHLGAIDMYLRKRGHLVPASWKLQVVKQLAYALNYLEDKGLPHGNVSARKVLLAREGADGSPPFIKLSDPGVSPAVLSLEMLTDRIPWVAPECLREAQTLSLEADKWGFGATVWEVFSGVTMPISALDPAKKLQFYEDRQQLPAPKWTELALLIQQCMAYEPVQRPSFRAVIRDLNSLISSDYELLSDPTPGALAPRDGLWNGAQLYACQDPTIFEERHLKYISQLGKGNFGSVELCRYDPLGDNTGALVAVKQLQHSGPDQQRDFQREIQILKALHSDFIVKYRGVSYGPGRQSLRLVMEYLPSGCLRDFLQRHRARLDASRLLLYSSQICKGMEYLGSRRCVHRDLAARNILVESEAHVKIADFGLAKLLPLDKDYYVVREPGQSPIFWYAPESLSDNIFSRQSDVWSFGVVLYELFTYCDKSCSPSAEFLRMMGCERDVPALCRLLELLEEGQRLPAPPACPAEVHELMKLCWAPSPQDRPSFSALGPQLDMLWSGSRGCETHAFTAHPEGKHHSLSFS

| Compound | IC50 [1] [nM] | IC50 [2] [nM] |
| --- | --- | --- |
| C=CC(=O)N1CCC(Nc2cnc3[nH]cc(-c4ccc(F)nc4)c3n2)CC1 [Example 207, 1-(4-{[7-(6-fluoropyridin-3-yl)-5H-pyrrolo[2,3-b]pyrazin-2-yl]amino}piperidin-1-yl)prop-2-en-1-one] | 0.3 | 28.9 |
| C=CC(=O)N1CCC(Nc2cnc3[nH]cc(-c4cnc(N5CCOCC5)nc4)c3n2)CC1 [Example 208, 1-[4-({7-[2-(morpholin-4-yl)pyrimidin-5-yl]-5H-pyrrolo[2,3-b]pyrazin-2-yl}amino)piperidin-1-yl]prop-2-en-1-one] | 5.9 | 576 |
| C=CC(=O)N1CCC(Nc2cnc3[nH]cc(-c4ccccc4)c3n2)CC1 [Example 209, 1-{4-[(7-phenyl-5H-pyrrolo[2,3-b]pyrazin-2-yl)amino]piperidin-1-yl}prop-2-en-1-one] | 0.2 | 14.3 |
| C=CC(=O)N1CCC(Nc2cnc3[nH]cc(-c4cnc(OC)nc4)c3n2)CC1 [Example 210, 1-(4-{[7-(2-methoxypyrimidin-5-yl)-5H-pyrrolo[2,3-b]pyrazin-2-yl]amino}piperidin-1-yl)prop-2-en-1-one] | 0.4 | 45.4 |
| C=CC(=O)N1CCC(Nc2cnc3[nH]cc(-c4ccnc(F)c4)c3n2)CC1 [Example 211, 1-(4-{[7-(2-fluoropyridin-4-yl)-5H-pyrrolo[2,3-b]pyrazin-2-yl]amino}piperidin-1-yl)prop-2-en-1-one] | 0.2 | 34.2 |
| C=CC(=O)N1CCC(Nc2cnc3[nH]cc(-c4cncc(F)c4)c3n2)CC1 [Example 212, 1-(4-{[7-(5-fluoropyridin-3-yl)-5H-pyrrolo[2,3-b]pyrazin-2-yl]amino}piperidin-1-yl)prop-2-en-1-one] | 0.3 | 16 |
| C=CC(=O)N1CCC(Oc2cnc3[nH]cc(-c4ccc(C)nc4)c3n2)CC1 [Example 214, 1-(4-{[7-(6-methylpyridin-3-yl)-5H-pyrrolo[2,3-b]pyrazin-2-yl]oxy}piperidin-1-yl)prop-2-en-1-one] | 2.3 | 308 |
| C=CC(=O)N1CCC(Oc2cnc3[nH]cc(-c4cncnc4)c3n2)CC1 [Example 215, 1-(4-{[7-(pyrimidin-5-yl)-5H-pyrrolo[2,3-b]pyrazin-2-yl]oxy}piperidin-1-yl)prop-2-en-1-one] | 2.9 | 386 |
| C=CC(=O)N1CCC(Oc2cnc3[nH]cc(-c4ccc(C#N)nc4)c3n2)CC1 [Example 216, 5-{2-[(1-acryloylpiperidin-4-yl)oxy]-5H-pyrrolo[2,3-b]pyrazin-7-yl}pyridine-2-carbonitrile] | 12.5 | 1030 |
| C=CC(=O)N1CCC(Oc2cnc3[nH]cc(-c4cnc(OC)nc4)c3n2)CC1 [Example 219, 1-(4-{[7-(2-methoxypyrimidin-5-yl)-5H-pyrrolo[2,3-b]pyrazin-2-yl]oxy}piperidin-1-yl)prop-2-en-1-one] | 1.7 | 153 |
| C=CC(=O)N1CCC(Oc2cnc3[nH]cc(-c4ccnc(F)c4)c3n2)CC1 [Example 222, 1-(4-{[7-(2-fluoropyridin-4-yl)-5H-pyrrolo[2,3-b]pyrazin-2-yl]oxy}piperidin-1-yl)prop-2-en-1-one] | 1.1 | 125 |
| C=CC(=O)N1CCC(Oc2cnc3[nH]cc(-c4c(C)noc4C)c3n2)CC1 [Example 224, 1-(4-{[7-(3,5-dimethyl-1,2-oxazol-4-yl)-5H-pyrrolo[2,3-b]pyrazin-2-yl]oxy}piperidin-1-yl)prop-2-en-1-one] | 17.6 | 1540 |
| C=CC(=O)N1CCC(Oc2cnc3[nH]cc(-c4cccc(C(=O)NC)c4)c3n2)CC1 [Example 227, 3-{2-[(1-acryloylpiperidin-4-yl)oxy]-5H-pyrrolo[2,3-b]pyrazin-7-yl}-N-methylbenzamide] | 0.9 | 71.8 |
| C=CC(=O)N1CCC(Oc2cnc3[nH]cc(-c4ccc(S(C)(=O)=O)cc4)c3n2)CC1 [Example 229, 1-[4-({7-[4-(methylsulfonyl)phenyl]-5H-pyrrolo[2,3-b]pyrazin-2-yl}oxy)piperidin-1-yl]prop-2-en-1-one] | 7.1 | 745 |
| C=CC(=O)N1CCC(Nc2cnc3[nH]cc(C(=O)NCC4(O)CCC4)c3n2)CC1 [Example 231, 2-[(1-acryloylpiperidin-4-yl)amino]-N-[(1-hydroxycyclobutyl)methyl]-5H-pyrrolo[2,3-b]pyrazine-7-carboxamide] | 0.6 | 52.6 |
| C=CC(=O)N1CCC(Nc2cnc3[nH]cc(C(=O)NCC4(O)CCCC4)c3n2)CC1 [Example 232, 2-[(1-acryloylpiperidin-4-yl)amino]-N-[(1-hydroxycyclopentyl)methyl]-5H-pyrrolo[2,3-b]pyrazine-7-carboxamide] | 0.3 | 25 |
| C=CC(=O)N1CCC(Nc2cnc3[nH]cc(C(=O)NC4CCCC4(F)F)c3n2)CC1 (stereo not shown) [Example 234, 2-[(1-acryloylpiperidin-4-yl)amino]-N-(2,2-difluorocyclopentyl)-5H-pyrrolo[2,3-b]pyrazine-7-carboxamide] | < 0.3 | 4.9 |
| C=CC(=O)N1CCC(Nc2cnc3[nH]cc(C(=O)NC4CCCC(F)(F)C4)c3n2)CC1 (stereo not shown) [Example 236, 2-[(1-acryloylpiperidin-4-yl)amino]-N-(3,3-difluorocyclohexyl)-5H-pyrrolo[2,3-b]pyrazine-7-carboxamide] | 0.1 | 8.3 |
| C=CC(=O)N1CCC(Nc2cnc3[nH]cc(C(=O)N[C@@H]4CCC[C@H]4F)c3n2)CC1 [Example 237, 2-[(1-acryloylpiperidin-4-yl)amino]-N-[(1R,2R)-2-fluorocyclopentyl]-5H-pyrrolo[2,3-b]pyrazine-7-carboxamide] | 0.2 | 7.8 |

The remaining lines, values ahead:

| IC50 [1] [nM] | IC50 [2] [nM] | Compound |
| --- | --- | --- |
| 0.2 | 9.3 | C=CC(=O)N1CCC(Nc2cnc3[nH]cc(C(=O)NCC4CC(F)(F)C4)c3n2)CC1 [Example 238, 2-[(1-acryloylpiperidin-4-yl)amino]-N-[(3,3-difluorocyclobutyl)methyl]-5H-pyrrolo[2,3-b]pyrazine-7-carboxamide] |
| 0.1 | 9.1 | C=CC(=O)N1CCC(Nc2cnc3[nH]cc(C(=O)NCCCC(F)(F)F)c3n2)CC1 [Example 240, 2-[(1-acryloylpiperidin-4-yl)amino]-N-(4,4,4-trifluorobutyl)-5H-pyrrolo[2,3-b]pyrazine-7-carboxamide] |
| 0.2 | 7.3 | C=CC(=O)N1CCC(Nc2cnc3[nH]cc(C(=O)NC[C@H](C)CC(F)(F)F)c3n2)CC1 [Example 241, 2-[(1-acryloylpiperidin-4-yl)amino]-N-[(2R)-4,4,4-trifluoro-2-methylbutyl]-5H-pyrrolo[2,3-b]pyrazine-7-carboxamide] |
| 0.1 | 10.7 | C=CC(=O)N1CCC(Nc2cnc3[nH]cc(C(=O)NCCCC#N)c3n2)CC1 [Example 242, 2-[(1-acryloylpiperidin-4-yl)amino]-N-(3-cyanopropyl)-5H-pyrrolo[2,3-b]pyrazine-7-carboxamide] |
| < 0.1 | 9 | C=CC(=O)N1CCC(Nc2cnc3[nH]cc(C(=O)NC4CC(F)C4)c3n2)CC1 (stereo not shown) [Example 243, 2-[(1-acryloylpiperidin-4-yl)amino]-N-(3-fluorocyclobutyl)-5H-pyrrolo[2,3-b]pyrazine-7-carboxamide] |
| 0.2 | 7.3 | C=CC(=O)N1CCC(Nc2cnc3[nH]cc(C(=O)N[C@H]4CC[C@@H](F)C4)c3n2)CC1 [Example 244, 2-[(1-acryloylpiperidin-4-yl)amino]-N-[(1S,3R)-3-fluorocyclopentyl]-5H-pyrrolo[2,3-b]pyrazine-7-carboxamide] |
| 0.2 | 17.9 | C=CC(=O)N1CCC(Nc2cnc3[nH]cc(C(=O)NC4CC(F)(F)C4)c3n2)CC1 [Example 245, 2-[(1-acryloylpiperidin-4-yl)amino]-N-(3,3-difluorocyclobutyl)-5H-pyrrolo[2,3-b]pyrazine-7-carboxamide] |
| 0.3 | 6.4 | C=CC(=O)N1CCC(Nc2cnc3[nH]cc(C(=O)NCCC(F)(F)F)c3n2)CC1 [Example 246, 2-[(1-acryloylpiperidin-4-yl)amino]-N-(3,3,3-trifluoropropyl)-5H-pyrrolo[2,3-b]pyrazine-7-carboxamide] |
| 0.2 | 8.2 | C=CC(=O)N1CCC(Nc2cnc3[nH]cc(C(=O)N[C@H]4CC[C@H](F)C4)c3n2)CC1 [Example 247, 2-[(1-acryloylpiperidin-4-yl)amino]-N-[(1S,3S)-3-fluorocyclopentyl]-5H-pyrrolo[2,3-b]pyrazine-7-carboxamide] |
| 0.4 | 40.2 | C=CC(=O)N1CCC(Nc2cnc3[nH]cc(C(=O)N[C@H](C(C)C)[C@@H](O)C(F)(F)F)c3n2)CC1 [Example 248, 2-[(1-acryloylpiperidin-4-yl)amino]-N-[(2R,3R)-1,1,1-trifluoro-2-hydroxy-4-methylpentan-3-yl]-5H-pyrrolo[2,3-b]pyrazine-7-carboxamide] |
| 0.6 | 47 | C=CC(=O)N1CCC(Nc2cnc3[nH]cc(C(=O)NCC4(O)CCCC(F)(F)C4)c3n2)CC1 (stereo not shown) [Example 249, 2-[(1-acryloylpiperidin-4-yl)amino]-N-[(3,3-difluoro-1-hydroxycyclohexyl)methyl]-5H-pyrrolo[2,3-b]pyrazine-7-carboxamide] |
| 0.2 | 8.1 | C=CC(=O)N1CCC(Nc2cnc3[nH]cc(C(=O)N[C@@H]4CCC[C@@H]4F)c3n2)CC1 [Example 251, 2-[(1-acryloylpiperidin-4-yl)amino]-N-[(1R,2S)-2-fluorocyclopentyl]-5H-pyrrolo[2,3-b]pyrazine-7-carboxamide] |
| 0.5 | 37.2 | C=CC(=O)N1CCC(Nc2cnc3[nH]cc(C(=O)N[C@@H](C(C)C)[C@H](O)C(F)(F)F)c3n2)CC1 [Example 252, 2-[(1-acryloylpiperidin-4-yl)amino]-N-[(2S,3S)-1,1,1-trifluoro-2-hydroxy-4-methylpentan-3-yl]-5H-pyrrolo[2,3-b]pyrazine-7-carboxamide] |
